{"source": "patent US9452990B2", "about": "“Complement pathway modulators and uses thereof” (NOVARTIS AG, priority 2012, dated 2016)", "biological_target": "human complement factor B (CVF-Bb complex) (Homo sapiens (Human), UniProt P00751)", "assay": "Human Complement Factor B ELISA Assay", "type": "biochemical", "summary_of_the_method": "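Preformed CVF-Bb complex (3 nM; cobra venom factor with recombinant human factors B and D) preincubated with compound 1 h, RT, in PBS pH 7.4, 10 mM MgCl2, 0.05% CHAPS. Plasma C3 added at 1 μM final for 1 h, then stopped; C3a product measured by ELISA, IC50 from % inhibition.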", "key": {"[1]": {"conditions": "CVF-Bb complex 3 nM, 1 hour preincubation with compound at room temperature, human C3 substrate 1 μM, C3a quantified by ELISA, read-out: Factor B IC50"}}, "note": "pIC50: −log10 of the molar value. Counter-ions that a name gives are not always drawn. Like-named read-outs stand apart in the source and are kept apart here.", "data": [{"smiles": "COc1cc2c(N)nc(N3CCN(C(=O)C[C@@H](N)c4ccsc4)CC3)nc2c(F)c1OC", "note": "[Example 37, (R)-3-Amino-1-[4-(4-amino-8-fluoro-6,7-dimethoxy-quinazolin-2-yl)-piperazin-1-yl]-3-thiophen-3-yl-propan-1-one]", "values": [{"measurement": "pIC50", "setting": "[1]", "result": 7.40}]}, {"smiles": "COc1cc2c(N)nc(N3CCN(C(=O)/C=C/c4ccc(C#N)cc4)C[C@@H]3c3ccccc3)nc2c(F)c1OC", "note": "[Example 10, 4-{(E)-3-[(S)-4-(4-Amino-8-fluoro-6,7-dimethoxy-quinazolin-2-yl)-3-phenyl-piperazin-1-yl]-3-oxo-propenyl}-benzonitrile]", "values": [{"measurement": "pIC50", "setting": "[1]", "result": 8.22}]}, {"smiles": "COc1cc2c(N)nc(N3CCN(C(=O)c4cc5cc(O)ccc5[nH]4)CC3)nc2c(F)c1OC", "note": "[Example 19, [4-(4-Amino-8-fluoro-6,7-dimethoxy-quinazolin-2-yl)-piperazin-1-yl]-(5-hydroxy-1H-indol-2-yl)-methanone]", "values": [{"measurement": "pIC50", "setting": "[1]", "result": 7.10}]}, {"smiles": "COc1cc2c(N)nc(N3CCN(C(=O)[C@@H]4CCc5ccccc5[C@@H]4N)C[C@@H]3C)nc2c(F)c1OC", "note": "[Example 105, [(S)-4-(4-Amino-8-fluoro-6,7-dimethoxy-quinazolin-2-yl)-3-methyl-piperazin-1-yl]-((1R,2R)-1-amino-1,2,3,4-tetrahydro-naphthalen-2-yl)-methanone]", "values": [{"measurement": "pIC50", "setting": "[1]", "result": 5.97}]}, {"smiles": "COc1cc2c(N)nc(N3CCN(C(=O)C[C@@H](N)c4cccc(C#N)c4)CC3)nc2c(F)c1OC", "note": "[Example 43, 3-{(R)-1-Amino-3-[4-(4-amino-8-fluoro-6,7-dimethoxy-quinazolin-2-yl)-piperazin-1-yl]-3-oxo-propyl}-benzonitrile]", "values": [{"measurement": "pIC50", "setting": "[1]", "result": 7.40}]}, {"smiles": "COc1cc2c(N)nc(N3CCN(C(=O)C[C@@H]4CCN4)CC3)nc2c(F)c1OC", "note": "[Example 109, 1-[4-(4-Amino-8-fluoro-6,7-dimethoxy-quinazolin-2-yl)-piperazin-1-yl]-2-(S)-azetidin-2-yl-ethanone]", "values": [{"measurement": "pIC50", "setting": "[1]", "result": 5.37}]}, {"smiles": "COc1cc2c(N)nc(N3CCN(C(=O)C[C@@H]4CCCCN4)CC3)nc2c(F)c1OC", "note": "[Example 113, 1-[4-(4-Amino-8-fluoro-6,7-dimethoxy-quinazolin-2-yl)-piperazin-1-yl]-2-(S)-piperidin-2-yl-ethanone]", "values": [{"measurement": "pIC50", "setting": "[1]", "result": 6.64}]}, {"smiles": "COc1cc2c(N)nc(N3CCN(C(=O)C[C@@H]4CCCNC4)C[C@@H]3c3ccccc3)nc2c(F)c1OC", "note": "[Example 122, 1-[(S)-4-(4-Amino-8-fluoro-6,7-dimethoxy-quinazolin-2-yl)-3-phenyl-piperazin-1-yl]-2-(S)-piperidin-3-yl-ethanone]", "values": [{"measurement": "pIC50", "setting": "[1]", "result": 6.70}]}, {"smiles": "COc1cc2c(N)nc(N3CCN(C(=O)C[C@@H](NC(C)C)c4ccc(F)cc4)CC3)nc2c(F)c1OC", "note": "[Example 89, (R)-1-[4-(4-Amino-8-fluoro-6,7-dimethoxy-quinazolin-2-yl)-piperazin-1-yl]-3-(4-fluoro-phenyl)-3-isopropylamino-propan-1-one]", "values": [{"measurement": "pIC50", "setting": "[1]", "result": 7.52}]}, {"smiles": "COc1cc2c(N)nc(N3C[C@@H](C)N(C(=O)C[C@@H](N)c4ccc(F)cc4)C[C@@H]3C)nc2c(F)c1OC", "note": "[Example 74, (R)-3-amino-1-[(2R,5S)-4-(4-amino-8-fluoro-6,7-dimethoxy-quinazolin-2-yl)-2,5-dimethyl-piperazin-1-yl]-3-(4-fluorophenyl)-propan-1-one]", "values": [{"measurement": "pIC50", "setting": "[1]", "result": 7.30}]}, {"smiles": "COc1cc2c(N)nc(N3CCN(C(=O)C[C@H](c4ccc(F)cc4)N(C)C)CC3)nc2c(F)c1OC", "note": "[Example 86]", "values": [{"measurement": "pIC50", "setting": "[1]", "result": 7.40}]}, {"smiles": "COc1cc2c(N)nc(N3CCN(C(=O)c4cc5cc(F)ccc5[nH]4)CC3)nc2c(F)c1OC", "note": "[Example 21, [4-(4-Amino-8-fluoro-6,7-dimethoxy-quinazolin-2-yl)-piperazin-1-yl]-(5-fluoro-1H-indol-2-yl)-methanone]", "values": [{"measurement": "pIC50", "setting": "[1]", "result": 7.15}]}, {"smiles": "COc1cc2c(N)nc(N3CCN(C(=O)/C=C/C4CC4)CC3)nc2c(C#N)c1OC", "note": "[Example 5, 4-Amino-2-[4-((E)-3-cyclopropyl-acryloyl)-piperazin-1-yl]-6,7-dimethoxy-quinazoline-8-carbonitrile]", "values": [{"measurement": "pIC50", "setting": "[1]", "result": 6.36}]}, {"smiles": "COc1cc2c(N)nc(N3CCN(C(=O)c4cc5c(OC)cccc5[nH]4)CC3)nc2c(F)c1OC", "note": "[Example 20, [4-(4-Amino-8-fluoro-6,7-dimethoxy-quinazolin-2-yl)-piperazin-1-yl]-(4-methoxy-1H-indol-2-yl)-methanone]", "values": [{"measurement": "pIC50", "setting": "[1]", "result": 5.02}]}, {"smiles": "CCC[C@H]1CN(C(=O)/C=C/c2ccc(C#N)cc2)CCN1c1nc(N)c2cc(OC)c(OC)c(F)c2n1", "note": "[Example 9, 4-{(E)-3-[(S)-4-(4-Amino-8-fluoro-6,7-dimethoxy-quinazolin-2-yl)-3-propyl-piperazin-1-yl]-3-oxo-propenyl}-benzonitrile]", "values": [{"measurement": "pIC50", "setting": "[1]", "result": 7.70}]}, {"smiles": "COc1cc2c(N)nc(N3CCN(C(=O)C[C@@H]4CCCN4CC(C)C)CC3)nc2c(F)c1OC", "note": "[Example 108, (S)-1-(4-(4-amino-8-fluoro-6,7-dimethoxyquinazolin-2-yl)piperazin-1-yl)-2-(1-isobutylpyrrolidin-2-yl)ethanone]", "values": [{"measurement": "pIC50", "setting": "[1]", "result": 6.77}]}, {"smiles": "COc1cc2c(N)nc(N3CCN(C(=O)C[C@@H](NC(C)C)c4ccc(F)cn4)CC3)nc2c(F)c1OC", "note": "[Example 101, (R)-1-[4-(4-Amino-8-fluoro-6,7-dimethoxy-quinazolin-2-yl)-piperazin-1-yl]-3-(5-fluoro-pyridin-2-yl)-3-isopropylamino-propan-1-one]", "values": [{"measurement": "pIC50", "setting": "[1]", "result": 7.89}]}, {"smiles": "COc1cc2c(N)nc(N3CCN(C(=O)C[C@@H]4CCCN4)C[C@@H]3C)nc2c(F)c1OC", "note": "[Example 115, 1-[(S)-4-(4-Amino-8-fluoro-6,7-dimethoxy-quinazolin-2-yl)-3-methyl-piperazin-1-yl]-2-(S)-pyrrolidin-2-yl-ethanone]", "values": [{"measurement": "pIC50", "setting": "[1]", "result": 6.49}]}, {"smiles": "COc1cc2c(N)nc(N3CCN(C(=O)C[C@H](c4ccc(F)cc4)N4CCC4)CC3)nc2c(F)c1OC", "note": "[Example 96, (R)-1-(4-(4-amino-8-fluoro-6,7-dimethoxyquinazolin-2-yl)piperazin-1-yl)-3-(azetidin-1-yl)-3-(4-fluorophenyl)propan-1-one]", "values": [{"measurement": "pIC50", "setting": "[1]", "result": 8.00}]}, {"smiles": "COc1cc2c(N)nc(N3CCN(C(=O)C[C@@H](N)c4ccc(C(F)F)cc4)CC3)nc2c(F)c1OC", "note": "[Example 53, (R)-3-Amino-1-[4-(4-amino-8-fluoro-6,7-dimethoxy-quinazolin-2-yl)piperazin-1-yl]-3-(4-difluoromethyl-phenyl)-propan-1-one hydrochloride]", "values": [{"measurement": "pIC50", "result": 7.30}]}, {"smiles": "COc1cc2c(N)nc(N3CCN(C(=O)C[C@@H](N)c4ccc(Cl)cc4)CC3)nc2c(F)c1OC", "note": "[Example 48, (R)-3-Amino-1-[4-(4-amino-8-fluoro-6,7-dimethoxy-quinazolin-2-yl)-piperazin-1-yl]-3-(4-chloro-phenyl)-propan-1-one hydrochloride]", "values": [{"measurement": "pIC50", "result": 7.05}]}, {"smiles": "CC[C@H]1CN(C(=O)C[C@@H](N)c2ccc(F)cc2)CCN1c1nc(N)c2cc(OC)c(OC)c(F)c2n1", "note": "[Example 65, (R)-3-Amino-1-[(S)-4-(4-amino-8-fluoro-6,7-dimethoxy-quinazolin-2-yl)-3-ethyl-piperazin-1-yl]-3-(4-fluoro-phenyl)-propan-1-one hydrochloride]", "values": [{"measurement": "pIC50", "result": 7.52}]}, {"smiles": "COc1cc2c(N)nc(N3CCN(C(=O)c4cc5cc(C#N)ccc5[nH]4)C[C@@H]3c3ccccc3)nc2c(F)c1OC", "note": "[Example 28, 2-[(S)-4-(4-Amino-8-fluoro-6,7-dimethoxy-quinazolin-2-yl)-3-phenyl-piperazine-1-carbonyl]-1H-indole-5-carbonitrile]", "values": [{"measurement": "pIC50", "setting": "[1]", "result": 8.30}]}, {"smiles": "COc1cc2c(N)nc(N3CCN(C(=O)C[C@@H]4CC[C@H](c5ccccc5)N4)CC3)nc2c(F)c1OC", "note": "[Example 111, 1-[4-(4-Amino-8-fluoro-6,7-dimethoxy-quinazolin-2-yl)-piperazin-1-yl]-2-((2S,5R)-5-phenyl-pyrrolidin-2-yl)-ethanone]", "values": [{"measurement": "pIC50", "setting": "[1]", "result": 6.42}]}, {"smiles": "COc1cc2c(N)nc(N3CCN(C(=O)C[C@@H]4CCN4)C[C@@H]3c3ccccc3)nc2c(F)c1OC", "note": "[Example 119, 1-[(S)-4-(4-Amino-8-fluoro-6,7-dimethoxy-quinazolin-2-yl)-3-phenyl-piperazin-1-yl]-2-(S)-azetidin-2-yl-ethanone hydrochloride]", "values": [{"measurement": "pIC50", "result": 6.21}]}]}
